Assay results as given in US20180289702A1, “LPA LEVEL REDUCTION FOR TREATING CENTRAL NERVOUS SYSTEM DISORDERS” (priority 2015, published 2018).

Legend:
PRG-1 het mice = assay: mEPSC recordings with HA-130; type: cell-based
PRG-1+/− mice [1] = assay: double-pulse whisker stimulation model of sensory gating; type: in vivo; details: animals with monoallelic PRG-1-deficiency, ISI 500 ms
Source text: In addition to analysis of spontaneous cortical network activity, the inventors assessed pre-attentive cortical information processing and measured sensory gating in a double-pulse whisker stimulation model (FIG. 4A). Local field potentials (recorded in the whisker-specific cortical barrel) in response to repetitive single-whisker stimulation elicited larger amplitudes to second stimulus in PRG-1^+/− when compared to wt (S1; S2; ISI=500 ms; FIG. 4B). […] These findings indicate that already loss of one functional allele of prg-1 as present in mutPRG-1 carriers, and thus a reduction of about 50% of functional PRG-1 at the synapse, causes an apparent E/I-imbalance in cortical networks and an altered sensory gating.

[2] = tested on: neuronal hyperexcitability induced by Ketamine; assay: ketamine-induced potentiation of evoked local field potentials (LFPs); type: cell-based, mice
Source text: This aim was to unravel whether ATX-inhibition is able to revert cortical hyperexcitability and an altered E/I balance independent of the underlying cause. As previously described (Nosyreva E et al. 2013), ketamine application inhibits spontaneous neurotransmission and induces afterwards a potentiation of synaptic responses over time (FIG. 8A).

PRG-1+/− mice [3] = assay: spontaneous postsynaptic currents (sPSC) with HA130; type: cell-based
PRG-1+/− mice [4] = assay: in vivo multi-unit activity (MUA) recordings in S1BF cortex; details: 1 μM applied into the cortex of living PRG-1+/− mice
Source text: In order to characterize the role of PRG-1 in cortical networks, the inventors then assessed expression of PRG-1 in the cerebral cortex and found strong expression in layer IV of the mouse somatosensory barrel field cortex (FIG. 3A) which was restricted to glutamatergic neurons. […] To understand implications of such a reduced synaptic PRG-1 function in intracortical information processing, the inventors performed multi-channel extracellular recordings in the S1BF cortex of wt and PRG-1^+/- mice in vivo (FIG. 3D). […] This finding points to a change in the cellular E/I balance towards excitation within cortical microcircuitries which has been related to severe behavioral deficits (Yizhar et al., 2011).

In the case of `O=C1S/C(=C\c2ccc(OCc3cccc(B(O)O)c3)cc2)C(=O)N1Cc1ccc(F)cc1` [HA130, (Z)-3-((4-((3-(4-Fluorobenzyl)-2,4-dioxo-1,3-thiazolan-5-yliden)-methyl)phenoxy)methyl)benzeneboronic acid], the “mEPSCs (spontaneous glutamatergic release at presynaptic terminals)” value (PRG-1 het mice; 10 μM (FIG. 12B), genotype not stated in the panel legend) is reported as “decreased”, the mEPSCs (PRG-1 het mice; 10 μM, PRG-1 het mice (FIG. 12A)) is reported as “decreased” and the S2/S1-ratio (PRG-1+/− mice [1]) is reported as “reduced”. For the same molecule, the sensory gating (PRG-1+/− mice [1]) was “significantly restored”, the “ketamine-induced potentiation (evoked LFPs)” value ([2]; 10 μM during ketamine wash out / potentiation phase) was “significantly decreased” and the “ketamine-induced potentiation, input-output curves” value ([2]; after HA-130 treatment) was “reverted to baseline values”. The “spontaneous postsynaptic currents (sPSC)” value (PRG-1+/− mice [3]; 1 μM) was “significant decrease”, the “spontaneous postsynaptic currents (sPSC)” value (PRG-1+/− mice [3]; 10 μM) was “significant decrease” and the “number of multi-unit activity (MUA) bursts” value (PRG-1+/− mice [4]) was “significantly decreased”.
